Assays:
Settings in all cases: human; call rule not given here
Hepatotoxicity [1] = assay: FDA HLAED, serum glutamic pyruvic transaminase (SGPT) increase
Hepatotoxicity [2] = assay: FDA HLAED, liver enzyme composite activity
Hepatotoxicity [3] = assay: FDA HLAED, gamma-glutamyl transferase (GGT) increase
Hepatotoxicity [4] = assay: FDA HLAED, lactate dehydrogenase (LDH) increase
Hepatotoxicity [5] = assay: FDA HLAED, alkaline phosphatase increase
Hepatotoxicity [6] = assay: FDA HLAED, serum glutamic oxaloacetic transaminase (SGOT) increase

In the case of `CC(C)(C)NC(=O)[C@@H]1C[C@@H]2CCCC[C@@H]2CN1C[C@@H](O)[C@H](Cc1ccccc1)NC(=O)[C@H](CC(N)=O)NC(=O)c1ccc2ccccc2n1`, the “SGPT Increase - Activity Score” value (Hepatotoxicity [1]) was “Inactive”, the “SGPT Increase - Index Value” (Hepatotoxicity [1]) was 0 and the “SGPT Increase - Number of Reports” value (Hepatotoxicity [1]) was < 4. The “Composite Activity - Active” value (Hepatotoxicity [2]; Liver) was 0, the “Composite Activity - Marginal” value (Hepatotoxicity [2]; Liver) was 0 and the “Composite Activity - Score” value (Hepatotoxicity [2]; Liver) was “Inactive”. The “GGT Increase - Activity Score” value (Hepatotoxicity [3]) was “Inactive”, the “GGT Increase - Index Value” (Hepatotoxicity [3]) was 0 and the “GGT Increase - Number of Reports” value (Hepatotoxicity [3]) was < 4. For the same molecule, the “LDH Increase - Activity Score” value (Hepatotoxicity [4]) was “Inactive”, the “LDH Increase - Index Value” (Hepatotoxicity [4]) was 0 and the “LDH Increase - Number of Reports” value (Hepatotoxicity [4]) was < 4. For the same molecule, the “Alkaline Phosphatase Increase - Activity Score” value (Hepatotoxicity [5]) was “Inactive”, the “Alkaline Phosphatase Increase - Index Value” (Hepatotoxicity [5]) was 0 and the “Alkaline Phosphatase Increase - Number of Reports” value (Hepatotoxicity [5]) was < 4. The “SGOT Increase - Activity Score” value (Hepatotoxicity [6]) was “Inactive”, the “SGOT Increase - Index Value” (Hepatotoxicity [6]) was 0 and the “SGOT Increase - Number of Reports” value (Hepatotoxicity [6]) was < 4.

In the case of `CO/N=C(\C(=O)N[C@@H]1C(=O)N2C(C(=O)[O-])=C(C[N+]3(C)CCCC3)CS[C@H]12)c1csc(N)n1`, the “SGPT Increase - Activity Score” value (Hepatotoxicity [1]) was “Active”, the “SGPT Increase - Index Value” (Hepatotoxicity [1]) was 68.4 and the “SGPT Increase - Number of Reports” value (Hepatotoxicity [1]) was “>= 4”. For the same molecule, the “Composite Activity - Active” value (Hepatotoxicity [2]) was 1, the “Composite Activity - Marginal” value (Hepatotoxicity [2]) was 0 and the “Composite Activity - Score” value (Hepatotoxicity [2]) was “Inactive”. For the same molecule, the “GGT Increase - Activity Score” value (Hepatotoxicity [3]) was “Inactive”, the “GGT Increase - Index Value” (Hepatotoxicity [3]) was 27.4 and the “GGT Increase - Number of Reports” value (Hepatotoxicity [3]) was < 4. For the same molecule, the “LDH Increase - Activity Score” value (Hepatotoxicity [4]) was “Inactive”, the “LDH Increase - Index Value” (Hepatotoxicity [4]) was 27.4 and the “LDH Increase - Number of Reports” value (Hepatotoxicity [4]) was < 4. The “Alkaline Phosphatase Increase - Activity Score” value (Hepatotoxicity [5]) was “Inactive”, the “Alkaline Phosphatase Increase - Index Value” (Hepatotoxicity [5]) was 1 and the “Alkaline Phosphatase Increase - Number of Reports” value (Hepatotoxicity [5]) was < 4. For the same molecule, the “SGOT Increase - Activity Score” value (Hepatotoxicity [6]) was “Inactive”, the “SGOT Increase - Index Value” (Hepatotoxicity [6]) was 13.7 and the “SGOT Increase - Number of Reports” value (Hepatotoxicity [6]) was < 4.

For `C=C1CC[C@@]2(O)[C@H]3Cc4ccc(O)c5c4[C@@]2(CCN3CC2CC2)[C@H]1O5`, the “SGPT Increase - Activity Score” value (Hepatotoxicity [1]) was “Inactive”, the “SGPT Increase - Index Value” (Hepatotoxicity [1]) was 0 and the “SGPT Increase - Number of Reports” value (Hepatotoxicity [1]) was < 4. For the same molecule, the “Composite Activity - Active” value (Hepatotoxicity [2]) was 0, the “Composite Activity - Marginal” value (Hepatotoxicity [2]) was 0 and the “Composite Activity - Score” value (Hepatotoxicity [2]) was “Inactive”. The “GGT Increase - Activity Score” value (Hepatotoxicity [3]) was “Inactive”, the “GGT Increase - Index Value” (Hepatotoxicity [3]) was 0 and the “GGT Increase - Number of Reports” value (Hepatotoxicity [3]) was < 4. For the same molecule, the “LDH Increase - Activity Score” value (Hepatotoxicity [4]) was “Inactive”, the “LDH Increase - Index Value” (Hepatotoxicity [4]) was 0 and the “LDH Increase - Number of Reports” value (Hepatotoxicity [4]) was < 4. The “Alkaline Phosphatase Increase - Activity Score” value (Hepatotoxicity [5]) was “Inactive”, the “Alkaline Phosphatase Increase - Index Value” (Hepatotoxicity [5]) was 0 and the “Alkaline Phosphatase Increase - Number of Reports” value (Hepatotoxicity [5]) was < 4. The “SGOT Increase - Activity Score” value (Hepatotoxicity [6]) was “Inactive”, the “SGOT Increase - Index Value” (Hepatotoxicity [6]) was 0 and the “SGOT Increase - Number of Reports” value (Hepatotoxicity [6]) was < 4.

`C[C@H]1O[C@H](O[C@H]2[C@H](O)[C@@H](O)[C@@H](O[C@H]3[C@H](O)[C@@H](O)C(O)O[C@@H]3CO)O[C@@H]2CO)[C@H](O)[C@@H](O)[C@@H]1N[C@H]1C=C(CO)[C@@H](O)[C@H](O)[C@H]1O` (stereo partly drawn) [ACARBOSE] was tested, and the “SGPT Increase - Activity Score” value (Hepatotoxicity [1]) was “Active”, the “SGPT Increase - Index Value” (Hepatotoxicity [1]) was 5.2 and the “SGPT Increase - Number of Reports” value (Hepatotoxicity [1]) was “>= 4”. The “Composite Activity - Active” value (Hepatotoxicity [2]) was 3, the “Composite Activity - Marginal” value (Hepatotoxicity [2]) was 0 and the “Composite Activity - Score” value (Hepatotoxicity [2]) was “Active”. The “GGT Increase - Activity Score” value (Hepatotoxicity [3]) was “Active”, the “GGT Increase - Index Value” (Hepatotoxicity [3]) was 4.3 and the “GGT Increase - Number of Reports” value (Hepatotoxicity [3]) was “>= 4”. For the same molecule, the “LDH Increase - Activity Score” value (Hepatotoxicity [4]) was “Inactive”, the “LDH Increase - Index Value” (Hepatotoxicity [4]) was 2.6 and the “LDH Increase - Number of Reports” value (Hepatotoxicity [4]) was < 4. For the same molecule, the “Alkaline Phosphatase Increase - Activity Score” value (Hepatotoxicity [5]) was “Inactive”, the “Alkaline Phosphatase Increase - Index Value” (Hepatotoxicity [5]) was 0 and the “Alkaline Phosphatase Increase - Number of Reports” value (Hepatotoxicity [5]) was < 4. The “SGOT Increase - Activity Score” value (Hepatotoxicity [6]) was “Active”, the “SGOT Increase - Index Value” (Hepatotoxicity [6]) was 5.2 and the “SGOT Increase - Number of Reports” value (Hepatotoxicity [6]) was “>= 4”.

For `CCCC(=O)Nc1ccc(OCC(O)CNC(C)C)c(C(C)=O)c1` (stereo not drawn) [ACEBUTOLOL], the “SGPT Increase - Activity Score” value (Hepatotoxicity [1]) was “Marginally Active”, the “SGPT Increase - Index Value” (Hepatotoxicity [1]) was 3.3 and the “SGPT Increase - Number of Reports” value (Hepatotoxicity [1]) was “>= 4”. For the same molecule, the “Composite Activity - Active” value (Hepatotoxicity [2]) was 0, the “Composite Activity - Marginal” value (Hepatotoxicity [2]) was 3 and the “Composite Activity - Score” value (Hepatotoxicity [2]) was “Inactive”. The “GGT Increase - Activity Score” value (Hepatotoxicity [3]) was “Inactive”, the “GGT Increase - Index Value” (Hepatotoxicity [3]) was 0 and the “GGT Increase - Number of Reports” value (Hepatotoxicity [3]) was < 4. The “LDH Increase - Activity Score” value (Hepatotoxicity [4]) was “Marginally Active”, the “LDH Increase - Index Value” (Hepatotoxicity [4]) was 3.3 and the “LDH Increase - Number of Reports” value (Hepatotoxicity [4]) was “>= 4”. For the same molecule, the “Alkaline Phosphatase Increase - Activity Score” value (Hepatotoxicity [5]) was “Marginally Active”, the “Alkaline Phosphatase Increase - Index Value” (Hepatotoxicity [5]) was 3.9 and the “Alkaline Phosphatase Increase - Number of Reports” value (Hepatotoxicity [5]) was “>= 4”. The “SGOT Increase - Activity Score” value (Hepatotoxicity [6]) was “Inactive”, the “SGOT Increase - Index Value” (Hepatotoxicity [6]) was 2.6 and the “SGOT Increase - Number of Reports” value (Hepatotoxicity [6]) was “>= 4”.

With `CC(=O)Nc1ccc(O)cc1` [ACETAMINOPHEN] the “SGPT Increase - Activity Score” value (Hepatotoxicity [1]) was “Active”, the “SGPT Increase - Index Value” (Hepatotoxicity [1]) was “No Shipping Units” and the “SGPT Increase - Number of Reports” value (Hepatotoxicity [1]) was “>= 4”. For the same molecule, the “Composite Activity - Active” value (Hepatotoxicity [2]) was 2, the “Composite Activity - Marginal” value (Hepatotoxicity [2]) was 3 and the “Composite Activity - Score” value (Hepatotoxicity [2]) was “Active”. For the same molecule, the “GGT Increase - Activity Score” value (Hepatotoxicity [3]) was “Marginally Active”, the “GGT Increase - Index Value” (Hepatotoxicity [3]) was “No Shipping Units” and the “GGT Increase - Number of Reports” value (Hepatotoxicity [3]) was “>= 4”. The “LDH Increase - Activity Score” value (Hepatotoxicity [4]) was “Marginally Active”, the “LDH Increase - Index Value” (Hepatotoxicity [4]) was “No Shipping Units” and the “LDH Increase - Number of Reports” value (Hepatotoxicity [4]) was “>= 4”. For the same molecule, the “Alkaline Phosphatase Increase - Activity Score” value (Hepatotoxicity [5]) was “Marginally Active”, the “Alkaline Phosphatase Increase - Index Value” (Hepatotoxicity [5]) was “No Shipping Units” and the “Alkaline Phosphatase Increase - Number of Reports” value (Hepatotoxicity [5]) was “>= 4”. The “SGOT Increase - Activity Score” value (Hepatotoxicity [6]) was “Active”, the “SGOT Increase - Index Value” (Hepatotoxicity [6]) was “No Shipping Units” and the “SGOT Increase - Number of Reports” value (Hepatotoxicity [6]) was “>= 4”.

Reference: ChEMBL document CHEMBL1697781, “Assessment of the health effects of chemicals in humans: II. Construction of an adverse effects database for QSAR modeling” (Curr Drug Discov Technol, 2004)
